Data reported in ChEMBL document CHEMBL4507273 (2021).

Key:
[1] = molecular target: Tyrosine-protein kinase Blk (Homo sapiens) (UniProt P51451); conditions: Compound concentration 1000.0 nM
[2] = molecular target: Ribosomal protein S6 kinase beta-1 (Homo sapiens) (UniProt P23443); conditions: Compound concentration 1000.0 nM
[3] = molecular target: Ribosomal protein S6 kinase alpha-3 (Homo sapiens) (UniProt P51812); conditions: Compound concentration 1000.0 nM
[4] = molecular target: Ephrin type-A receptor 6 (Homo sapiens) (UniProt Q9UF33); conditions: Compound concentration 1000.0 nM
[5] = molecular target: Dual specificity mitogen-activated protein kinase kinase 6 (Homo sapiens) (UniProt P52564); conditions: Compound concentration 1000.0 nM
[6] = molecular target: Citron Rho-interacting kinase (Homo sapiens) (UniProt O14578); conditions: Compound concentration 1000.0 nM
[7] = molecular target: cGMP-dependent protein kinase 1 (Homo sapiens) (UniProt Q13976); conditions: Compound concentration 1000.0 nM
[8] = molecular target: Calcium-dependent protein kinase 1 (Plasmodium falciparum) (UniProt P62344); conditions: Compound concentration 1000.0 nM
[9] = molecular target: Activated CDC42 kinase 1 (Homo sapiens) (UniProt Q07912); conditions: Compound concentration 1000.0 nM
[10] = molecular target: Serine/threonine-protein kinase WNK1 (Homo sapiens) (UniProt Q9H4A3); conditions: Compound concentration 1000.0 nM
[11] = molecular target: Cyclin-dependent kinase 3 (Homo sapiens) (UniProt Q00526); conditions: Compound concentration 1000.0 nM
[12] = molecular target: GABA-A receptor; anion channel (Rattus norvegicus) (UniProt O09028+P15431+P18506+P18508+P19969+P20236+P23574+P23576+P28471+P28473+P30191+P62813+P63079+P63138+Q91ZM7+Q9ES14); conditions: Compound concentration 10.0 uM
[13] = molecular target: G protein-coupled receptor kinase 3 (Homo sapiens) (UniProt P35626); conditions: Compound concentration 1000.0 nM
[14] = molecular target: Tyrosine-protein kinase Fgr (Homo sapiens) (UniProt P09769); conditions: Compound concentration 1000.0 nM
[15] = molecular target: TRAF2 and NCK-interacting protein kinase (Homo sapiens) (UniProt Q9UKE5); conditions: Compound concentration 1000.0 nM
[16] = molecular target: Serine/threonine-protein kinase PRP4 homolog (Homo sapiens) (UniProt Q13523); conditions: Compound concentration 1000.0 nM
D(1A) dopamine receptor = D(1A) dopamine receptor (Homo sapiens, UniProt P21728); conditions: Compound concentration 10.0 uM
[17] = molecular target: Ribosomal protein S6 kinase alpha-1 (Homo sapiens) (UniProt Q15418); conditions: Compound concentration 1000.0 nM
[18] = molecular target: RAF proto-oncogene serine/threonine-protein kinase (Homo sapiens) (UniProt P04049); conditions: Compound concentration 1000.0 nM
[19] = molecular target: Tyrosine-protein kinase SYK (Homo sapiens) (UniProt P43405); conditions: Compound concentration 1000.0 nM
[20] = system: ALK tyrosine kinase receptor (Homo sapiens), Q9UM73 [C1156Y]; conditions: Compound concentration 1000.0 nM
[21] = molecular target: 5-hydroxytryptamine receptor 6 (Homo sapiens) (UniProt P50406); conditions: Compound concentration 10.0 uM
[22] = molecular target: Rhodopsin kinase GRK1 (Homo sapiens) (UniProt Q15835); conditions: Compound concentration 1000.0 nM
[23] = system: Epidermal growth factor receptor (Homo sapiens), P00533 [G719S]; conditions: Compound concentration 1000.0 nM
[24] = molecular target: Tyrosine-protein kinase Fes/Fps (Homo sapiens) (UniProt P07332); conditions: Compound concentration 1000.0 nM
[25] = molecular target: Dual specificity protein kinase CLK2 (Homo sapiens) (UniProt P49760); conditions: Compound concentration 1000.0 nM
[26] = molecular target: T1, Alpha-2B adrenergic receptor (Homo sapiens, UniProt P18089); assay: GPCRScan assay: inhibition of Alpha2B; parameters: radioligand conc. used [nm] 1.5 – 2.0, parental cells HEKT
T1 sequence (P18089 whole entry): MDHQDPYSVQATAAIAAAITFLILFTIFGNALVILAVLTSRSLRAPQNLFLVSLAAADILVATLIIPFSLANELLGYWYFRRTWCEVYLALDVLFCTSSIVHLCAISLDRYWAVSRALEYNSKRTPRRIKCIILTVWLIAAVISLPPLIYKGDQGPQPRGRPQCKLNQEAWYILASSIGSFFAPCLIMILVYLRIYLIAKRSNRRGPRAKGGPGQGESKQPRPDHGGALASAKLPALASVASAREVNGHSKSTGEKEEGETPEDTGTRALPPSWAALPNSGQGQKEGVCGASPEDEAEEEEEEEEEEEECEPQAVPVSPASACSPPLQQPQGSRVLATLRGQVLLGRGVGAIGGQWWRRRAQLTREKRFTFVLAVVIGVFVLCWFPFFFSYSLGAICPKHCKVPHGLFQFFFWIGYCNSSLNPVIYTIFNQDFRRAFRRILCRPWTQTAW

[27] = molecular target: Mitogen-activated protein kinase 12 (Homo sapiens) (UniProt P53778); conditions: Compound concentration 1000.0 nM
[28] = molecular target: Dual specificity mitogen-activated protein kinase kinase 3 (Homo sapiens) (UniProt P46734); conditions: Compound concentration 1000.0 nM
[29] = molecular target: Fibroblast growth factor receptor 4 (Homo sapiens) (UniProt P22455); conditions: Compound concentration 1000.0 nM
[30] = molecular target: Mitogen-activated protein kinase 9 (Homo sapiens) (UniProt P45984); conditions: Compound concentration 1000.0 nM
[31] = molecular target: Serine/threonine-protein kinase PknB (Mycobacterium tuberculosis) (UniProt P9WI81); conditions: Compound concentration 1000.0 nM
[32] = molecular target: Serine/threonine-protein kinase D1 (Homo sapiens) (UniProt Q15139); conditions: Compound concentration 1000.0 nM
[33] = system: Tyrosine-protein kinase ABL1 (Homo sapiens), P00519 [F317L]; conditions: Compound concentration 1000.0 nM
[34] = molecular target: Mitogen-activated protein kinase 8 (Homo sapiens) (UniProt P45983); conditions: Compound concentration 1000.0 nM
[35] = molecular target: Angiopoietin-1 receptor (Homo sapiens) (UniProt Q02763); conditions: Compound concentration 1000.0 nM
[36] = molecular target: Cyclin-dependent kinase 11B (Homo sapiens) (UniProt P21127); conditions: Compound concentration 1000.0 nM
[37] = molecular target: Tyrosine-protein kinase JAK1 (Homo sapiens) (UniProt P23458); conditions: Compound concentration 1000.0 nM
Sequence of Tyrosine-protein kinase JAK1 (Homo sapiens) (P23458 whole entry): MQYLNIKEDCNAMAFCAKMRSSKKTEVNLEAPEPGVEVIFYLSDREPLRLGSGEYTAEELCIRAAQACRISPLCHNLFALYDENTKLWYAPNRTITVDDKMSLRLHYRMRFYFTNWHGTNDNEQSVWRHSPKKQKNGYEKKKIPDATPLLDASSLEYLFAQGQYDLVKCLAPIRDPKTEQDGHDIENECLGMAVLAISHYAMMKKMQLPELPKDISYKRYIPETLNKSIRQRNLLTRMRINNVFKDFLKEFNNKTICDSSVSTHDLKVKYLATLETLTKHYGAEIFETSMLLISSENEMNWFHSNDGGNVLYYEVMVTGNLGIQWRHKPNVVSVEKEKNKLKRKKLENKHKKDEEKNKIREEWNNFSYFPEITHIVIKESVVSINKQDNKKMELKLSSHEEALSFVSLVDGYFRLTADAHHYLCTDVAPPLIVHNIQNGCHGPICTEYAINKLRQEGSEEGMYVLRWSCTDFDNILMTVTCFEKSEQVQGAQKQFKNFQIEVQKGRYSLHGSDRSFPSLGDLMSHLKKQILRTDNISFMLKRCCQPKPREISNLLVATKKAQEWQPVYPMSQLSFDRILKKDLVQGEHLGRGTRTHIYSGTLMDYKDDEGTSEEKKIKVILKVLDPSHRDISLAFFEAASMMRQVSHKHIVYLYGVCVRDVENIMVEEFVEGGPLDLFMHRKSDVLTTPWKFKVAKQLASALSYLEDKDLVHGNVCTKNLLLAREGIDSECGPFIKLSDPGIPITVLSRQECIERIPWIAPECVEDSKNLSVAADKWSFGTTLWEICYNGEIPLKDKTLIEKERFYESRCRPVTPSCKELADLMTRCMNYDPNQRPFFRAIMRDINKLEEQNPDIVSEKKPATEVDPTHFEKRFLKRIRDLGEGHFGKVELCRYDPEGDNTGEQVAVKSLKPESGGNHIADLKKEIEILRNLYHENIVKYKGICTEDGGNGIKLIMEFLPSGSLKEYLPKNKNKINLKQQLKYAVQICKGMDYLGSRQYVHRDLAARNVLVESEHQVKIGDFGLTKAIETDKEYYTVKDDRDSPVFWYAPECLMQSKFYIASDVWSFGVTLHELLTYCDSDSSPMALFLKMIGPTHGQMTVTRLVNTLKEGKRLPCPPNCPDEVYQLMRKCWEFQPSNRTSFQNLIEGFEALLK

Sequence of Tyrosine-protein kinase Fgr (Homo sapiens) (P09769 2-529 limits assumed): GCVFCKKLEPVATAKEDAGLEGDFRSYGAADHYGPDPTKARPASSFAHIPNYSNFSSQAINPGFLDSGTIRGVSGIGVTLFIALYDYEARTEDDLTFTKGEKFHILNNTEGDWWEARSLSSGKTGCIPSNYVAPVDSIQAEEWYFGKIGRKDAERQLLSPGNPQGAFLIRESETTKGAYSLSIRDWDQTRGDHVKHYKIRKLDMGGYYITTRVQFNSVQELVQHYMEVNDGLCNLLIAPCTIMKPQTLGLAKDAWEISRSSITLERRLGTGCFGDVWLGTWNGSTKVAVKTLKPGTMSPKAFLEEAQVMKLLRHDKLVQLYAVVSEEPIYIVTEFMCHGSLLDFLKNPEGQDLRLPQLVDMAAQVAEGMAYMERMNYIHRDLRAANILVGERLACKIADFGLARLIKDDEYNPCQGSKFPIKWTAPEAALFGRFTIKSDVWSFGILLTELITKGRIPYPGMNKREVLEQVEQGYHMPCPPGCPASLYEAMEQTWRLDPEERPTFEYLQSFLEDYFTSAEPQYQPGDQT
Sequence of Serine/threonine-protein kinase PknB (Mycobacterium tuberculosis) (P9WI81 whole entry): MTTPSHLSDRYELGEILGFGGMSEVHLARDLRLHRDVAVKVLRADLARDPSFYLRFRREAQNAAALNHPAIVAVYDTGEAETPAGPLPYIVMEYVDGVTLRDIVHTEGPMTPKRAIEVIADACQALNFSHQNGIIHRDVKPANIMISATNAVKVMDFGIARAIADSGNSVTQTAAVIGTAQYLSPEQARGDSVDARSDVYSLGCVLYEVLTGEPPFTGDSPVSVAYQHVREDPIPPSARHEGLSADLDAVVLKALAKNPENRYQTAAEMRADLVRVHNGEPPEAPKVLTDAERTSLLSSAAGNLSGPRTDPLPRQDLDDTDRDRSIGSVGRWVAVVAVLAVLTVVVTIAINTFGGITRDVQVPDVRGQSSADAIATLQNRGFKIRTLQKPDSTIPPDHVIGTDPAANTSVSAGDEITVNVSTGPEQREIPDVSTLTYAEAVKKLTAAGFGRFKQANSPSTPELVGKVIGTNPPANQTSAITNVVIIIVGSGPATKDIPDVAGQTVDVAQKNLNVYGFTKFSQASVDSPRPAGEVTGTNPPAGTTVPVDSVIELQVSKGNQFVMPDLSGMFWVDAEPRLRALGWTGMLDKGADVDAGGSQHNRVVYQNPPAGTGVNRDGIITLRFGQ
Sequence of Dual specificity protein kinase CLK2 (Homo sapiens) (P49760 whole entry, looked up): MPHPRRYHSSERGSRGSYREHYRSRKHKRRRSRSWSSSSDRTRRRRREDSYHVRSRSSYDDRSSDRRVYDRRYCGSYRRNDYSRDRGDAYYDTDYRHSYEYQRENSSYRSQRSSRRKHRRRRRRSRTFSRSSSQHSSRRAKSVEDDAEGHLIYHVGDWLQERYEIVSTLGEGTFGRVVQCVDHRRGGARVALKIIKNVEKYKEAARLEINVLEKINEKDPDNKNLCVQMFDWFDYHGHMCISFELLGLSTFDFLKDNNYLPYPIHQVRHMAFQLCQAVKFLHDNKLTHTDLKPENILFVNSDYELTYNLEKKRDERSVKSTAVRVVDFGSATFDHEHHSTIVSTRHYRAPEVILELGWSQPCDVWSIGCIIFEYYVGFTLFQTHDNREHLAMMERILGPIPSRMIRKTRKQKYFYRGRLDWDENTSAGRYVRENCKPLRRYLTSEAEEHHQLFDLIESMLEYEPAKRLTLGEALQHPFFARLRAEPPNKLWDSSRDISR
Sequence of Serine/threonine-protein kinase D1 (Homo sapiens) (Q15139 whole entry): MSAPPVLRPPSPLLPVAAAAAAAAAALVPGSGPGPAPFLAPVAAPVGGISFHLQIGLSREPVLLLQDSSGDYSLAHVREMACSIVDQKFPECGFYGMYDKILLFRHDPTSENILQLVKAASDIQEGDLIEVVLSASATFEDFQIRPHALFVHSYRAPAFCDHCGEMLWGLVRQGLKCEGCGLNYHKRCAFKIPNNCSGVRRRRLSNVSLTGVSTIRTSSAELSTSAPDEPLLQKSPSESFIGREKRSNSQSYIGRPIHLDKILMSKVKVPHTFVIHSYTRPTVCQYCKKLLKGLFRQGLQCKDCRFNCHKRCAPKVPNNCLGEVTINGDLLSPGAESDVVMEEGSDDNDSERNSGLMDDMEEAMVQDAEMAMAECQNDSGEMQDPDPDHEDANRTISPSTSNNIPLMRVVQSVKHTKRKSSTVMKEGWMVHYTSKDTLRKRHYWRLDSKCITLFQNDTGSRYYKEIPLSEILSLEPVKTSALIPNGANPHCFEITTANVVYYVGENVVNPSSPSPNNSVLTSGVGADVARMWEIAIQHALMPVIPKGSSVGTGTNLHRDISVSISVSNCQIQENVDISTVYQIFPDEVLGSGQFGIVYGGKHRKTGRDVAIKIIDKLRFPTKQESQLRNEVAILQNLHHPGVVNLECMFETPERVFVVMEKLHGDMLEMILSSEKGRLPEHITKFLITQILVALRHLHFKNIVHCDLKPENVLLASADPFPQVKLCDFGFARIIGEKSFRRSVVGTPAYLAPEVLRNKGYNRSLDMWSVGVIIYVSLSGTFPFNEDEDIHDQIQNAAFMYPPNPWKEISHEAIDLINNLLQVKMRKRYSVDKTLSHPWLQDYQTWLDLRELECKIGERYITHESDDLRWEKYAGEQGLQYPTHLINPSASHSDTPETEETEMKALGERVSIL
Sequence of G protein-coupled receptor kinase 3 (Homo sapiens) (P35626 whole entry): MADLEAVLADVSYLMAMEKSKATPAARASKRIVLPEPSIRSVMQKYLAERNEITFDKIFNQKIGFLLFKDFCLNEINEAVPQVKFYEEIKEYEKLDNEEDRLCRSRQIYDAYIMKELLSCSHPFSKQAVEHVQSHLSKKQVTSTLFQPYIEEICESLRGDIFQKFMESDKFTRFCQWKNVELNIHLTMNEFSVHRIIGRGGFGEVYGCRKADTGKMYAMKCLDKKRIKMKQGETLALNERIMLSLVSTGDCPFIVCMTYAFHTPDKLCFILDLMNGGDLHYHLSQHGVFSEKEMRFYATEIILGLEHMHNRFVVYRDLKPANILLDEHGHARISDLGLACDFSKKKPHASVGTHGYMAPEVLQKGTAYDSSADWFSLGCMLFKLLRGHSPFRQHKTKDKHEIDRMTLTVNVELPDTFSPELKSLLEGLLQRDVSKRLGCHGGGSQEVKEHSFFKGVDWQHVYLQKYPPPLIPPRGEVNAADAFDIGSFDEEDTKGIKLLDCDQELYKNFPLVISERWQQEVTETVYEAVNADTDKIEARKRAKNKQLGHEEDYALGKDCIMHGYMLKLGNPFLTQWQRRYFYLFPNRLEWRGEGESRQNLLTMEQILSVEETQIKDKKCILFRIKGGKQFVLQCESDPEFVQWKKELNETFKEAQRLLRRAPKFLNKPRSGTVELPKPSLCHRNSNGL
Sequence of Tyrosine-protein kinase Blk (Homo sapiens) (P51451 2-505 limits assumed): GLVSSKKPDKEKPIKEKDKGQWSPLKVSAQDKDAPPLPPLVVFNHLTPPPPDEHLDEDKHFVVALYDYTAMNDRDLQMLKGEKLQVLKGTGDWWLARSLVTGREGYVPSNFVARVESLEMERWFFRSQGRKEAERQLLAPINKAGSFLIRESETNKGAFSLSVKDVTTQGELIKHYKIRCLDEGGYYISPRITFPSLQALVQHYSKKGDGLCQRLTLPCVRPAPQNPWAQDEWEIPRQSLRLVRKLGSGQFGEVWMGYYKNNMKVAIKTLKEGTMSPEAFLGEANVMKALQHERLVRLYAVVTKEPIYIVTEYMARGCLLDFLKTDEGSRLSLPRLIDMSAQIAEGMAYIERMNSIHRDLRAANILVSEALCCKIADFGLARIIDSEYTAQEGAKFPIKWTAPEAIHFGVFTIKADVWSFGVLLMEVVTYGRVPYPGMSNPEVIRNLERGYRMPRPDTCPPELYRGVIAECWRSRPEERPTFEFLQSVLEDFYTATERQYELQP

| Compound | residual activity [1] [%] | residual activity [2] [%] | residual activity [3] [%] | residual activity [4] [%] | residual activity [5] [%] | residual activity [6] [%] | residual activity [7] [%] | residual activity [8] [%] | residual activity [9] [%] | residual activity [10] [%] | residual activity [11] [%] | inhibition [12] [%] | residual activity [13] [%] | residual activity [14] [%] | residual activity [15] [%] | residual activity [16] [%] | inhibition (D(1A) dopamine receptor) [%] | residual activity [17] [%] | residual activity [18] [%] | residual activity [19] [%] | further results |
| --- | --- | --- | --- | --- | --- | --- | --- | --- | --- | --- | --- | --- | --- | --- | --- | --- | --- | --- | --- | --- | --- |
| CNCc1ccccc1-c1csc([C@H](C)Nc2nc(C)nc3cc(OC)c(OC)cc23)c1 [BAY-294] | 94 | 83 | 78 | 100 | 100 | 100 | 100 | 81 | 100 | 100 | 100 | 9.67 | 91 | 100 | 99 | 100 | 89.2 | 100 | 65 | 100 | residual activity [20]: 100%; inhibition [21]: 20.2%; residual activity [22]: 100%; residual activity [23]: 84%; residual activity [24]: 100%; residual activity [25]: 100%; Ki ([26]; read-out: Ki): 0.847 µM; Ki ([26]; read-out: pKi (converted)): 0.813 µM; residual activity [27]: 100%; residual activity [28]: 98%; residual activity [29]: 100%; residual activity [30]: 71%; residual activity [31]: 90%; residual activity [32]: 100%; residual activity [33]: 100%; residual activity [34]: 81%; residual activity [35]: 100%; residual activity [36]: 100%; residual activity [37]: 68% |
| CNCc1ccccc1-c1csc([C@@H](C)Nc2nc(C)nc3cc(OC)c(OC)cc23)c1 [BAY-293] | 91 | 86 | 76 | 96 | 86 | 92 | 100 | 100 | 100 | 88 | 100 | 12.3 | 98 | 100 | 85 | 96 | 82.7 | 100 | 70 | 100 | residual activity [20]: 100%; inhibition [21]: -1.41%; residual activity [22]: 99%; residual activity [23]: 69%; residual activity [24]: 100%; residual activity [25]: 98%; Ki ([26]; read-out: Ki): 1.23 µM; residual activity [27]: 100%; residual activity [28]: 80%; residual activity [29]: 100%; residual activity [30]: 71%; residual activity [31]: 76%; residual activity [32]: 90%; residual activity [33]: 100%; residual activity [34]: 66%; residual activity [35]: 87%; residual activity [36]: 100%; residual activity [37]: 73% |
